{
  "source": "patent US20150342959A1",
  "about": "“METHODS AND COMPOSITIONS FOR SUSTAINED N[…]” (DemeRx, Inc., priority 2014, published 2015)",
  "key": {"[1]": {"tested_on": "healthy, drug-free male volunteers", "experiment": "Pupillometry (pupillary miosis, dark-adapted pupil diameter)", "assay_type": "in vivo, human", "conditions": "adjusted for baseline, p>0.9", "experimental": "(§1) Pulse oximetry and capnography data were collected continuously using a GE Carescape B650 monitoring system from 2 hours prior to dosing and until six hours after dosing, and thereafter at 12, 24, 48 and 72 hours post-dosing. Additional oximetry data were collected at 120, 168 and 216 hours. Pupillary miosis was assessed by pupillometry. Dark-adapted pupil diameter was measured in triplicate using a Neuroptics PLR-200 pupillometer under standardized light intensity (<5 lux) pre-dose, and at 2, 4, 6, 12, 24, 48, 72, 96, 120, 168 and 216 hours post-dosing.\n(§2) Summary statistics (means, standard deviations, and coefficients of variation) were determined for each dose group for safety laboratory test data, ECG and pharmacokinetic parameters, and pharmacodynamic variables. Categorical variables were analysed using counts and percentages. Dose-proportionality of AUC and Cmax was assessed using linear regression. The effect of dose on pharmacodynamic parameter values over time was assessed using two-factor analysis of variance (ANOVA). Pairwise comparisons (with Tukey-Kramer adjustment) between each dose group to the placebo were conducted at each time point using the least squares estimates obtained from the ANOVA, using SAS Proc Mixed (SAS ver 6.0)."}, "[2]": {"tested_on": "healthy, drug-free male volunteers", "experiment": "Cold pressor test (analgesic effect)", "assay_type": "in vivo, human", "conditions": "adjusted for baseline", "experimental": "as §2\nAnalgesic effect was assessed based on duration of hand immersion in ice water and on visual analog scale (VAS) pain scores upon hand removal from the water bath.\n(§3) Safety and tolerability of noribogaine were tested in the group of volunteers from Example 1. Cold pressor testing was conducted in 1° C. water according to the method of Mitchell et al. (J Pain 5:233-237, 2004) pre-dose, 6, 24, 48, 72 and 216 hours post-dosing. Safety evaluations included clinical monitoring, recording of adverse events (AEs), safety laboratory tests, vital signs, ECG telemetry from −2 h to 6 h after dosing, and 12-lead electrocardiograms (ECGs) up to 216 hours post-dosing."}, "[3]": {"tested_on": "healthy, drug-free male volunteers", "experiment": "Safety and tolerability of noribogaine in healthy humans (adverse events, vital signs, ECG)", "assay_type": "in vivo, human", "experimental": "as §1, §3"}, "[4]": {"tested_on": "opioid-dependent participants", "experiment": "Time to resumption of morphine (opioid substitution treatment, OST)", "assay_type": "in vivo, human"}, "[5]": {"tested_on": "opioid-dependent participants", "experiment": "Opiate withdrawal scales (COWS, SOWS, OOWS)", "assay_type": "in vivo, human", "conditions": "first six hours following dosing", "experimental": "Patients were evaluated based on the Clinical Opiate Withdrawal Scale (COWS), Subjective Opiate Withdrawal Scale (SOWS), and Objective Opiate Withdrawal Scale (OOWS) scoring systems over the period of time between administration of noribogaine (or placebo) until resumption of OST. These scales are outlined in Guidelines for the Psychosocially Assisted Pharmacological Treatment of Opioid Dependence, World Health Organization, Geneva (2009), Annex 10, which is incorporated herein by reference in its entirety. The scales measure the intensity of withdrawal symptoms, based on clinical, subjective, and objective indicia."}, "[6]": {"experiment": "Pharmacokinetics in opioid-dependent patients (Phase IB study, serum noribogaine)", "conditions": "60, 120, 180 mg"}},
  "data": [
    {"smiles": "CC[C@H]1CC2C[C@H]3c4[nH]c5ccc(O)cc5c4CCN(C2)C13", "note": "[noribogaine]", "values": [
      {"measurement": "pupil diameter, each dose group vs placebo by ANOVA", "setting": "[1]", "value": "no statistically significant differences"},
      {"measurement": "VAS pain scores, each dose group vs placebo by ANOVA", "setting": "[2]; p=0.17", "value": "no statistically significant differences"},
      {"measurement": "duration of hand immersion, each dose group vs placebo by ANOVA", "setting": "[2]; p>0.9", "value": "no statistically significant differences"},
      {"measurement": "adverse events reported", "setting": "[3]; 3 mg dose group", "value": "five adverse events were reported by two subjects"},
      {"measurement": "adverse events reported", "setting": "[3]; 10 mg dose group", "value": "one adverse event was reported by single subjects"},
      {"measurement": "adverse events reported", "setting": "[3]; 30 mg dose group", "value": "one adverse event was reported by single subjects"},
      {"measurement": "changes in oximetry, capnography, respiratory rate", "setting": "[3]; 3-60 mg", "value": "no changes in oximetry or capnography, or changes in respiratory rate"},
      {"measurement": "changes in vital signs or safety laboratory tests", "setting": "[3]; 3-60 mg", "value": "no changes in vital signs or safety laboratory tests of note"},
      {"measurement": "Time to resumption of OST", "setting": "[4]; 180 mg, longer than untreated patients (7 hours, not shown) or 60 mg", "value": "> 7", "unit": "h"},
      {"measurement": "average time to resumption of opioids", "setting": "[4]; single 120 mg dose", "value": "greater than 20 hours"},
      {"measurement": "withdrawal symptoms (COWS, OOWS, SOWS)", "setting": "[5]; 120 mg", "value": "fewer withdrawal symptoms than the other patients"},
      {"measurement": "withdrawal symptoms, noribogaine vs placebo", "setting": "[5]; 60, 120, 180 mg", "value": "placebo generally experienced more withdrawal symptoms than patients who were administered noribogaine"},
      {"measurement": "Maximum serum concentration of noribogaine (Cmax), dose dependence", "setting": "[6]", "value": "increased in a dose-dependent manner"}
    ]}
  ]
}
